Measured values taken from patent publication US12502372B2, “(9beta-H)-pimarane mother nucleus diterpenoid compound with anti-colon cancer activity and derivative thereof, and preparation method thereof” (NANJING UNIVERSITY OF CHINESE MEDICINE, priority 2023, dated 2025).

Columns and labels:
[1] = test system: HT-29 colon cancer cells; experiment: MTT proliferation inhibition (cell viability) on colon cancer cell line HT-29; type: cell-based; details: for IC50: Homo sapiens, HT-29 colon cancer cell line, 24 hours with drug, MTT method, OD 570 nm, read-out: IC50 ± SD, HT-29
Method: (§1) Colon cancer cell lines HT-29 and SW620 (cell bank of Chinese Academy of Sciences) were cultured in a DMEM culture solution containing 10% fetal bovine serum (Gibco Company of America) at 37° C. under 5% CO2. During subculturing, a dish of tumor cells was taken out first, the culture solution was removed, and 3 mL of PBS was added to wash the cells twice; 1 mL of trypsin was added for digestion, 1 mL of culture solution was added after 2 minutes to stop the digestion, and the mixture was centrifuged at 1000 r/min and room temperature for 5 minutes; and a supernatant was removed, 1 mL of DMEM culture medium containing 10% fetal bovine serum was added, and the mixture was resuspended to obtain a cell suspension.
(§2) Different volumes of DMEM culture media were added to dilute the compounds into different concentrations. Meanwhile, a DMEM culture medium containing 0.1% DMSO was used as a negative control.
(§3) Tumor cells were suspended in a culture medium, inoculated into a 96-well plate (100 μL/well) by a cell density of 6×10^3, and cultured at 37° C. under 5% CO2 for 24 hours. In a logarithmic growth period of the tumor cell lines, different concentrations of compounds were added to culture the cells at 37° C. under 5% CO2 for 24 hours.
(§4) After 24 hours of interaction between the drugs and the tumor cells, 20 μL of MTT solution (5 mg/mL) was added into each well to incubate the cells in a sterile incubator for 3 hours. A supernatant was removed completely, and 150 μL of DMSO was added into each well to react on a shaker for 30 minutes, so as to dissolve bluish violet formazan crystals. An OD value was determined at a wavelength of 570 nm with a microplate reader. IC50 (median inhibitory concentration) values of the compounds were calculated by GraphPad Prism 8 software, and 5-FU was used as a positive control.

[2] = test system: colon cancer cell line SW620; experiment: MTT proliferation inhibition (cell viability) on colon cancer cell line SW620; type: cell-based; details: for IC50: Homo sapiens, SW-620, SW620 colon cancer cell line, 24 hours with drug, MTT method, OD 570 nm, read-out: IC50 ± SD, SW620
Method: as §1, §2, §3, §4

Row | Structure (SMILES) | inhibiting effect on HT-29 relative to positive drug 5-FU ([1]; HT-29, compared with 5-FU) | anti-proliferation effect on HT-29 (in words) ([1]; HT-29, stated stronger than positive drug 5-FU) | IC50 [1] [µM] | IC50 [2] [µM] | anti-proliferation effect on SW620 (in words) ([2]; SW620, stated stronger than positive drug 5-FU)
1 | COC(=O)CC[C@]12CO[C@H](C[C@H]3c4occc4C(=O)C[C@H]31)[C@H]2[C@@H](C)C(=O)O [Compound 2, secoicacinlivitholide G] | about three times that of the positive drug 5-FU | remarkable anti-proliferation effects | 3.12 ± 1.63 | 9.92 ± 1.68 | remarkable anti-proliferation effects
2 | O=c1[nH]cc(F)c(=O)[nH]1 [Compound 5-FU, 5-fluorouracil, reference compound] | – | – | 9.18 ± 1.61 | 14.2 ± 1.43 | –
3 | C[C@@H](C(=O)O)[C@@H]1[C@H]2C[C@H]3c4occc4C(=O)C[C@H]3[C@]1(CCC(=O)O)CO2 [Compound 1, secoicacinlivitholide F] | – | – | > 20 | – | –
